Measurements from patent publication US11098038B2, “Imidazole-based anticancer agents and derivatives thereof, and methods of making and using same” (The University of Toledo, priority 2017, dated 2021).

Assays:
SW-620 = assay: NCI 60 screen, SW-620; format: cell-based; conditions: Homo sapiens, Colon
Procedure: (§1) The compounds synthesized were tested at the National Cancer Institute (NCI) for anti-proliferative activity in the 60 human tumor cell line assay.

SNB-19 = assay: NCI 60 screen, SNB-19; format: cell-based; conditions: Homo sapiens, CNS
Procedure: as §1

OVCAR-3 = assay: NCI 60 screen, OVCAR-3; format: cell-based; conditions: Homo sapiens, Ovarian
Procedure: as §1

SK-MEL-2 [1] = assay: NCI 60 screen, SK-MEL-2 (second line); format: cell-based; conditions: Homo sapiens; Melanoma, SK-MEL-2 (second of two lines so named, r38)
Procedure: as §1

SNB-75 = assay: NCI 60 screen, SNB-75; format: cell-based; conditions: Homo sapiens, CNS
Procedure: as §1

HCT15 = assay: NCI 60 screen, HCT15; format: cell-based; conditions: Homo sapiens, HCT-15, Colon
Procedure: as §1

MDA-MB-468 = assay: NCI 60 screen, MDA-MB-468; format: cell-based; conditions: Homo sapiens, Breast
Procedure: as §1

NCI-H23 = assay: NCI 60 screen, NCI-H23; format: cell-based; conditions: Homo sapiens, Non-Small Cell Lung
Procedure: as §1

SF-268 = assay: NCI 60 screen, SF-268; format: cell-based; conditions: Homo sapiens, CNS
Procedure: as §1

DU-145 = assay: NCI 60 screen, DU-145; format: cell-based; conditions: Homo sapiens, Prostatic
Procedure: as §1

LOX IMVI = assay: NCI 60 screen, LOX IMVI; format: cell-based; conditions: Homo sapiens, Melanoma
Procedure: as §1

MDA-MB-435 = assay: NCI 60 screen, MDA-MB-435; format: cell-based; conditions: Homo sapiens, Melanoma
Procedure: as §1

RPMI-8226 = assay: NCI 60 screen, RPMI-8226; format: cell-based; conditions: Homo sapiens, Leukemia
Procedure: as §1

OVCAR-4 = assay: NCI 60 screen, OVCAR-4; format: cell-based; conditions: Homo sapiens, Ovarian
Procedure: as §1

UACC-62 = assay: NCI 60 screen, UACC-62; format: cell-based; conditions: Homo sapiens, Melanoma
Procedure: as §1

A498 = assay: NCI 60 screen, A498; format: cell-based; conditions: Homo sapiens, Renal
Procedure: as §1

OVCAR-5 = assay: NCI 60 screen, OVCAR-5; format: cell-based; conditions: Homo sapiens, Ovarian
Procedure: as §1

NCI-H226 = assay: NCI 60 screen, NCI-H226; format: cell-based; conditions: Homo sapiens, Non-Small Cell Lung
Procedure: as §1

SK-OV-3 = assay: NCI 60 screen, SK-OV-3; format: cell-based; conditions: Homo sapiens, Ovarian
Procedure: as §1

OVCAR-8 = assay: NCI 60 screen, OVCAR-8; format: cell-based; conditions: Homo sapiens, Ovarian
Procedure: as §1

SK-MEL-5 = assay: NCI 60 screen, SK-MEL-5; format: cell-based; conditions: Homo sapiens, Melanoma
Procedure: as §1

T-47D = assay: NCI 60 screen, T-47D; format: cell-based; conditions: Homo sapiens, T47D, Breast
Procedure: as §1

HCC-2998 = assay: NCI 60 screen, HCC-2998; format: cell-based; conditions: Homo sapiens, Colon
Procedure: as §1

RXF393 = assay: NCI 60 screen, RXF393; format: cell-based; conditions: Homo sapiens, RXF 393, Renal
Procedure: as §1

MOLT-4 = assay: NCI 60 screen, MOLT-4; format: cell-based; conditions: Homo sapiens, Leukemia
Procedure: as §1

U251 = assay: NCI 60 screen, U251; format: cell-based; conditions: Homo sapiens, U-251, CNS
Procedure: as §1

UO-31 = assay: NCI 60 screen, UO-31; format: cell-based; conditions: Homo sapiens, Renal
Procedure: as §1

SN12C = assay: NCI 60 screen, SN12C; format: cell-based; conditions: Homo sapiens, Renal
Procedure: as §1

HOP-92 = assay: NCI 60 screen, HOP-92; format: cell-based; conditions: Homo sapiens, Non-Small Cell Lung
Procedure: as §1

SF-539 = assay: NCI 60 screen, SF-539; format: cell-based; conditions: Homo sapiens, CNS
Procedure: as §1

HT29 = assay: NCI 60 screen, HT29; format: cell-based; conditions: Homo sapiens, HT-29, Colon
Procedure: as §1

KM12 = assay: NCI 60 screen, KM12; format: cell-based; conditions: Homo sapiens, Colon
Procedure: as §1

HL-60(TB) = assay: NCI 60 screen, HL-60(TB); format: cell-based; conditions: Homo sapiens, Leukemia
Procedure: as §1

CAKI-1 = assay: NCI 60 screen, CAKI-1; format: cell-based; conditions: Homo sapiens, Renal
Procedure: as §1

PC-3 = assay: NCI 60 screen, PC-3; format: cell-based; conditions: Homo sapiens, Prostatic
Procedure: as §1

CCRF-CEM = assay: NCI 60 screen, CCRF-CEM; format: cell-based; conditions: Homo sapiens, Leukemia
Procedure: as §1

SF-295 = assay: NCI 60 screen, SF-295; format: cell-based; conditions: Homo sapiens, CNS
Procedure: as §1

NCI-H522 = assay: NCI 60 screen, NCI-H522; format: cell-based; conditions: Homo sapiens, Non-Small Cell Lung
Procedure: as §1

MALME-3M = assay: NCI 60 screen, MALME-3M; format: cell-based; conditions: Homo sapiens, Melanoma
Procedure: as §1

HS 578T = assay: NCI 60 screen, HS 578T; format: cell-based; conditions: Homo sapiens, Breast
Procedure: as §1

EKVX = assay: NCI 60 screen, EKVX; format: cell-based; conditions: Homo sapiens, Non-Small Cell Lung
Procedure: as §1

786-0 = assay: NCI 60 screen, 786-0; format: cell-based; conditions: Homo sapiens, Renal
Procedure: as §1

HOP-62 = assay: NCI 60 screen, HOP-62; format: cell-based; conditions: Homo sapiens, Non-Small Cell Lung
Procedure: as §1

NCI/ADR-RES = assay: NCI 60 screen, NCI/ADR-RES; format: cell-based; conditions: Homo sapiens, Ovarian
Procedure: as §1

TK-10 = assay: NCI 60 screen, TK-10; format: cell-based; conditions: Homo sapiens, Renal
Procedure: as §1

HCT-116 = assay: NCI 60 screen, HCT-116; format: cell-based; conditions: Homo sapiens, Colon
Procedure: as §1

COLO 205 = assay: NCI 60 screen, COLO 205; format: cell-based; conditions: Homo sapiens, Colon
Procedure: as §1

NCI-322M = assay: NCI 60 screen, NCI-322M; format: cell-based; conditions: Homo sapiens, Non-Small Cell Lung
Procedure: as §1

UACC-257 = assay: NCI 60 screen, UACC-257; format: cell-based; conditions: Homo sapiens, Melanoma
Procedure: as §1

SK-MEL-2 [2] = assay: NCI 60 screen, SK-MEL-2 (first line); format: cell-based; conditions: Homo sapiens; Melanoma, SK-MEL-2 (first of two lines so named, r37)
Procedure: as §1

A549/ATCC = assay: NCI 60 screen, A549/ATCC; format: cell-based; conditions: Homo sapiens, Non-Small Cell Lung
Procedure: as §1

IGROV1 = assay: NCI 60 screen, IGROV1; format: cell-based; conditions: Homo sapiens, IGROV-1, Ovarian
Procedure: as §1

MCF7 = assay: NCI 60 screen, MCF7; format: cell-based; conditions: Homo sapiens, Breast
Procedure: as §1

BT-549 = assay: NCI 60 screen, BT-549; format: cell-based; conditions: Homo sapiens, Breast
Procedure: as §1

NCI-460 = assay: NCI 60 screen, NCI-460; format: cell-based; conditions: Homo sapiens, Non-Small Cell Lung
Procedure: as §1

MDA-MB-231/ATCC = assay: NCI 60 screen, MDA-MB-231/ATCC; format: cell-based; conditions: Homo sapiens, Breast
Procedure: as §1

ACHN = assay: NCI 60 screen, ACHN; format: cell-based; conditions: Homo sapiens, Renal
Procedure: as §1

SMILES: Cn1ccnc1C(=O)/C=C/c1ccc(CC(=O)Nc2ccc(Cl)cc2)cc1 [Compound 30, (E)-N-(4-chlorophenyl)-2-(4-(3-(1-methyl-1H-imidazol-2-yl)-3-oxoprop-1-en-1-yl)phenyl)acetamide]
- GI50 (SW-620): 1250 nM
- GI50 (SNB-19): 1770 nM
- GI50 (OVCAR-3): 1030 nM
- GI50 (SK-MEL-2 [1]): 25000 nM
- GI50 (SNB-75): 1900 nM
- GI50 (HCT15): 999 nM
- GI50 (MDA-MB-468): 1030 nM
- GI50 (NCI-H23): 2040 nM
- GI50 (SF-268): 1240 nM
- GI50 (DU-145): 1420 nM
- GI50 (LOX IMVI): 1070 nM
- GI50 (MDA-MB-435): 9150 nM
- GI50 (RPMI-8226): 959 nM
- GI50 (OVCAR-4): 2180 nM
- GI50 (UACC-62): 6500 nM
- GI50 (A498): 25000 nM
- GI50 (OVCAR-5): 9980 nM
- GI50 (NCI-H226): 7420 nM
- GI50 (SK-OV-3): 8790 nM
- GI50 (OVCAR-8): 3490 nM
- GI50 (SK-MEL-5): 14400 nM
- GI50 (T-47D): 4300 nM
- GI50 (HCC-2998): 3420 nM
- GI50 (RXF393): 2970 nM
- GI50 (MOLT-4): 1740 nM
- GI50 (U251): 1100 nM
- GI50 (UO-31): 2270 nM
- GI50 (SN12C): 3040 nM
- GI50 (HOP-92): 2500 nM
- GI50 (SF-539): 6400 nM
- GI50 (HT29): 889 nM
- GI50 (KM12): 1510 nM
- GI50 (HL-60(TB)): 4810 nM
- GI50 (CAKI-1): 13500 nM
- GI50 (PC-3): 1370 nM
- GI50 (CCRF-CEM): 1460 nM
- GI50 (SF-295): 7390 nM
- GI50 (NCI-H522): 4850 nM
- GI50 (MALME-3M): 14200 nM
- melting point: 250 °C
- GI50 (HS 578T): 15700 nM
- GI50 (EKVX): 1560 nM
- GI50 (786-0): 1600 nM
- GI50 (HOP-62): 2160 nM
- GI50 (NCI/ADR-RES): 2220 nM
- GI50 (TK-10): 12300 nM
- GI50 (HCT-116): 1310 nM
- GI50 (COLO 205): 9440 nM
- GI50 (NCI-322M): 3990 nM
- GI50 (UACC-257): 25000 nM
- GI50 (SK-MEL-2 [2]): 25000 nM
- GI50 (A549/ATCC): 1150 nM
- GI50 (IGROV1): 5270 nM
- GI50 (MCF7): 891 nM
- GI50 (BT-549): 3530 nM
- GI50 (NCI-460): 1580 nM
- GI50 (MDA-MB-231/ATCC): 5230 nM
- GI50 (ACHN): 15000 nM

SMILES: O=C(Cc1ccc(/C=C/C(=O)c2ncc[nH]2)cc1)NC1CCCCC1 [Compound 23, (E)-2-(4-(3-(1H-imidazol-2-yl)-3-oxoprop-1-en-1-yl)phenyl)-N-cyclohexylacetamide]
- melting point: 208.5 °C

SMILES: O=C(Cc1ccc(/C=C/C(=O)c2ncc[nH]2)cc1)Nc1cccc2ccccc12 [Compound 17, (E)-2-(4-(3-(1H-imidazol-2-yl)-3-oxoprop-1-en-1-yl)phenyl)-N-(naphthalen-1-yl)acetamide]
- melting point: 229 to 230 °C

SMILES: Cn1ccnc1C(=O)/C=C/c1ccc(CC(=O)Nc2ccc(C(F)(F)F)cc2)cc1 [Compound 26, (E)-2-(4-(3-(1-methyl-1H-imidazol-2-yl)-3-oxoprop-1-en-1-yl)phenyl)-N-(4-(trifluoromethyl)phenyl) acetamide]
- melting point: 222 to 226 °C

SMILES: O=C(Cc1ccc(/C=C/C(=O)c2ncc[nH]2)cc1)Nc1cc(C(F)(F)F)cc(C(F)(F)F)c1 [Compound 37, (E)-2-(4-(3-(1H-imidazol-2-yl)-3-oxoprop-1-en-1-yl)phenyl)-N-(3,5-bis(trifluoromethyl)phenyl) acetamide]
- melting point: 243 °C
